Experimental data from PubChem BioAssay (NCI).
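Cultured in 96-well plates, cells were exposed to test compound for 48 hours across five concentrations. The concentration for full growth arrest is given as TGI.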

What was measured:
Assay in all cases: NCI-60 cell line screen, 48 h
SN12C renal = tested on: SN12C renal
SK-MEL-28 melanoma = tested on: SK-MEL-28 melanoma
DU-145 prostate = tested on: DU-145 prostate
NCI/ADR-RES ovarian = tested on: NCI/ADR-RES ovarian
MDA-N = tested on: MDA-N
A549 NSCLC = tested on: A549 NSCLC
HOP-92 NSCLC = tested on: HOP-92 NSCLC
A498 renal = tested on: A498 renal
OVCAR-3 ovarian = tested on: OVCAR-3 ovarian
SF-539 CNS = tested on: SF-539 CNS
SNB-75 CNS = tested on: SNB-75 CNS
CAKI-1 renal = tested on: CAKI-1 renal
EKVX NSCLC = tested on: EKVX NSCLC
OVCAR-8 ovarian = tested on: OVCAR-8 ovarian
HL-60(TB) leukemia = tested on: HL-60(TB) leukemia
M14 melanoma = tested on: M14 melanoma
HOP-62 NSCLC = tested on: HOP-62 NSCLC
SW-620 colon = tested on: SW-620 colon
MCF7 breast = tested on: MCF7 breast
NCI-H522 lung = tested on: NCI-H522 lung
U251 CNS = tested on: U251 CNS
SR leukemia = tested on: SR leukemia
MALME-3M melanoma = tested on: MALME-3M melanoma
UO-31 renal = tested on: UO-31 renal
786-0 renal = tested on: 786-0 renal
NCI-H226 lung = tested on: NCI-H226 lung
SNB-19 CNS = tested on: SNB-19 CNS
UACC-62 melanoma = tested on: UACC-62 melanoma
COLO 205 colon = tested on: COLO 205 colon
KM12 colon = tested on: KM12 colon
RPMI-8226 leukemia = tested on: RPMI-8226 leukemia
OVCAR-4 ovarian = tested on: OVCAR-4 ovarian
HCT-116 colon = tested on: HCT-116 colon
CCRF-CEM leukemia = tested on: CCRF-CEM leukemia
BT-549 breast = tested on: BT-549 breast
ACHN renal = tested on: ACHN renal
OVCAR-5 ovarian = tested on: OVCAR-5 ovarian
MDA-MB-435 = tested on: MDA-MB-435
IGROV1 ovarian = tested on: IGROV1 ovarian
SK-OV-3 ovarian = tested on: SK-OV-3 ovarian
MOLT-4 leukemia = tested on: MOLT-4 leukemia
SF-295 CNS = tested on: SF-295 CNS
SK-MEL-2 melanoma = tested on: SK-MEL-2 melanoma
K-562 leukemia = tested on: K-562 leukemia
SK-MEL-5 melanoma = tested on: SK-MEL-5 melanoma
RXF 393 renal = tested on: RXF 393 renal
MDA-MB-231 breast = tested on: MDA-MB-231 breast
NCI-H23 lung = tested on: NCI-H23 lung
PC-3 prostate = tested on: PC-3 prostate
UACC-257 melanoma = tested on: UACC-257 melanoma
LOX IMVI melanoma = tested on: LOX IMVI melanoma
HT29 colon = tested on: HT29 colon
HCC-2998 colon = tested on: HCC-2998 colon
TK-10 renal = tested on: TK-10 renal
HCT-15 colon = tested on: HCT-15 colon
NCI-H460 lung = tested on: NCI-H460 lung
SF-268 CNS = tested on: SF-268 CNS

SMILES: O=C1CCCC1CC(CN1CCOCC1)Sc1nnnn1-c1ccccc1 (stereo not drawn)
- TGI (SN12C renal): > 100 µM
- TGI (SK-MEL-28 melanoma): > 100 µM
- TGI (DU-145 prostate): > 100 µM
- TGI (NCI/ADR-RES ovarian): > 100 µM
- TGI (MDA-N): > 100 µM
- TGI (A549 NSCLC): > 100 µM
- TGI (HOP-92 NSCLC): > 100 µM
- TGI (A498 renal): > 100 µM
- TGI (OVCAR-3 ovarian): > 100 µM
- TGI (SF-539 CNS): > 100 µM
- TGI (SNB-75 CNS): 96.7 µM
- TGI (CAKI-1 renal): 79.1 µM
- TGI (EKVX NSCLC): > 100 µM
- TGI (OVCAR-8 ovarian): > 100 µM
- TGI (HL-60(TB) leukemia): 82.2 µM
- TGI (M14 melanoma): > 100 µM
- TGI (HOP-62 NSCLC): > 100 µM
- TGI (SW-620 colon): > 100 µM
- TGI (MCF7 breast): > 100 µM
- TGI (NCI-H522 lung): > 100 µM
- TGI (U251 CNS): > 100 µM
- TGI (SR leukemia): > 100 µM
- TGI (MALME-3M melanoma): > 100 µM
- TGI (UO-31 renal): > 100 µM
- TGI (786-0 renal): > 100 µM
- TGI (NCI-H226 lung): > 100 µM
- TGI (SNB-19 CNS): > 100 µM
- TGI (UACC-62 melanoma): > 100 µM
- TGI (COLO 205 colon): 33.1 µM
- TGI (KM12 colon): > 100 µM
- TGI (RPMI-8226 leukemia): > 100 µM
- TGI (OVCAR-4 ovarian): > 100 µM
- TGI (HCT-116 colon): > 100 µM
- TGI (CCRF-CEM leukemia): > 100 µM
- TGI (BT-549 breast): > 100 µM
- TGI (ACHN renal): > 100 µM
- TGI (OVCAR-5 ovarian): > 100 µM
- TGI (MDA-MB-435): > 100 µM
- TGI (IGROV1 ovarian): > 100 µM
- TGI (SK-OV-3 ovarian): > 100 µM
- TGI (MOLT-4 leukemia): > 100 µM
- TGI (SF-295 CNS): > 100 µM
- TGI (SK-MEL-2 melanoma): > 100 µM
- TGI (K-562 leukemia): > 100 µM
- TGI (SK-MEL-5 melanoma): > 100 µM
- TGI (RXF 393 renal): > 100 µM
- TGI (MDA-MB-231 breast): > 100 µM
- TGI (NCI-H23 lung): > 100 µM
- TGI (PC-3 prostate): > 100 µM
- TGI (UACC-257 melanoma): > 100 µM
- TGI (LOX IMVI melanoma): > 100 µM
- TGI (HT29 colon): > 100 µM
- TGI (HCC-2998 colon): > 100 µM

SMILES: Oc1ccc(-c2nc3cc(C(F)(F)F)ccc3s2)cc1
- TGI (SN12C renal): 32.6 µM
- TGI (DU-145 prostate): 30 µM
- TGI (NCI/ADR-RES ovarian): 35.5 µM
- TGI (MDA-N): 32.7 µM
- TGI (A549 NSCLC): 29.7 µM
- TGI (A498 renal): 32.6 µM
- TGI (OVCAR-3 ovarian): 28.3 µM
- TGI (TK-10 renal): 33.1 µM
- TGI (SF-539 CNS): 34.2 µM
- TGI (HCT-15 colon): 22.1 µM
- TGI (CAKI-1 renal): 29.1 µM
- TGI (EKVX NSCLC): 16.9 µM
- TGI (OVCAR-8 ovarian): 29.4 µM
- TGI (HL-60(TB) leukemia): 40.7 µM
- TGI (M14 melanoma): 29.2 µM
- TGI (SW-620 colon): 40.2 µM
- TGI (MCF7 breast): 23.3 µM
- TGI (NCI-H522 lung): 25.7 µM
- TGI (U251 CNS): 30.5 µM
- TGI (SR leukemia): 35.2 µM
- TGI (MALME-3M melanoma): 26.6 µM
- TGI (UO-31 renal): 26.8 µM
- TGI (NCI-H226 lung): 32.6 µM
- TGI (SNB-19 CNS): 31.4 µM
- TGI (UACC-62 melanoma): 27.2 µM
- TGI (COLO 205 colon): 33.1 µM
- TGI (KM12 colon): 27.8 µM
- TGI (RPMI-8226 leukemia): 35.4 µM
- TGI (HCT-116 colon): 27.6 µM
- TGI (CCRF-CEM leukemia): 27.8 µM
- TGI (BT-549 breast): 28.5 µM
- TGI (ACHN renal): 27.6 µM
- TGI (OVCAR-5 ovarian): 30.9 µM
- TGI (MDA-MB-435): 29.5 µM
- TGI (IGROV1 ovarian): 23.8 µM
- TGI (SK-OV-3 ovarian): 40.7 µM
- TGI (MOLT-4 leukemia): 87.5 µM
- TGI (SF-295 CNS): 28.2 µM
- TGI (SK-MEL-2 melanoma): 30.1 µM
- TGI (K-562 leukemia): > 100 µM
- TGI (SK-MEL-5 melanoma): 30 µM
- TGI (NCI-H460 lung): 30.1 µM
- TGI (RXF 393 renal): 33.2 µM
- TGI (SF-268 CNS): 30.8 µM
- TGI (MDA-MB-231 breast): 31 µM
- TGI (NCI-H23 lung): 30.5 µM
- TGI (PC-3 prostate): 27.9 µM
- TGI (UACC-257 melanoma): 32.2 µM
- TGI (LOX IMVI melanoma): 26.6 µM
- TGI (HT29 colon): 35.9 µM
